These results are taken from article PMC6611794, “Development of a high-throughput strategy for discovery of potent analogues of antibiotic lysocin E” (Nature Communications, 2019).

Where two headings read alike, the source gives them in different places. Where a SMILES comes first, the peptide text is derived from it. Bridges are numbered along the chain shown (N, C = ends). [ ]: non-standard residue; d: D form. The star is where a group is joined. Hexanoyl(3R-OH,5-Me) = CC(C)C[C@@H](O)CC(=O)*; dNMeF = CN[C@H](Cc1ccccc1)C(=O)O; dOrn = NCCC[C@@H](N)C(=O)O

A short description of assay [1]: Liposomal membrane disruption assay (carboxyfluorescein LUVs). Type of assay: biochemical. As for the experimental part:
Preparation of LUVs consisting of PC/PG. Carboxyfluorescein-encapsulated large unilamellar vesicles (LUVs) were prepared according to the thin-film hydration method, followed by extrusion through Nuclepore polycarbonate filters (GE Healthcare) mounted in the mini-extruder apparatus (Avanti Polar Lipids). A solution of egg yolk phosphatidylcholine (9.60 mg, 12.5 µmol) and egg yolk phosphatidylglycerol (9.78 mg, 12.5 µmol) in CHCl3 (0.505 mL) was concentrated, and dried under vacuum to form a lipid thin film. The thin film was hydrated and suspended in carboxyfluorescein-containing buffer solution [0.500 mL, 5 mM 4-(2-hydroxyethyl)-1-piperazineethanesulfonic acid (HEPES), 20 mM carboxyfluorescein, pH 7.5] by vortexing and sonication. After five -times freeze-thaw cycles, the lipid suspension was extruded 19 times through a polycarbonate filter with 0.40 µm of pore size in the diameter. The external carboxyfluorescein -containing buffer was replaced w ith a carboxyfluorescein -free buffer solution [20 mM HEPES, 1 mM ethylenediaminetetraacetic acid (EDTA), pH 7.5] through size exclusion chromatography using disposable PD-10 column (GE Healthcare). Concentration of egg yolk phosphatidylcholine was determined by using Phospholipid C-Test Wako (Fujifilm Wako Pure Chemical). The final concentration of egg yolk phosphatidylcholine was adjusted to 4.0 µM with the carboxyfluorescein-free buffer solution, and the solution was used for membrane disruption assay. […]
Membrane disruption assay. […]
to various concentrations as 5-fold serial dilutions. The solution of peptides (2 µL/well) and the carboxyfluorescein-encapsulated LUV suspension (200 µL/well) were mixed in black polystyrene flat-bottom 96-well plates. The final concentration of peptides ranged from 2970 nM to 0.950 nM. The plates were vortexed at room temperature for 30 min, and then fluorescence of carboxyfluorescein (Ex. 490 nm/Em. 517 nm) of each well was measured at room temperature on Gemini EM microplate reader. Trion X-100/H2O (5/95, 2 µL), MeOH/H2O (4/6, 2 µL), and the LUV suspension were mixed in each plate to determine 100% lysis. MeOH/H2O (4/6, 2 µL) and the LUV suspension were mixed in each plate to determine 0% lysis.
The membrane disruption activities of tested peptides (I) were normalized against 100% lysis by Triton X -100 […]
(Imax) and 0% lysis by MeOH/H2O (4/6) (I0) as following, where Ix is the fluorescence intensity (Supplementary Equation 2).
I = 100 × (Ix – I0) / (Imax – I0) (2)
The membrane-disrupting activities were evaluated as half-maximal response (EC50, nM) values by means of three replicates. Sigmoidal curve fittings were performed on R2 with drc package (Supplementary Figs S7–S9).3 Two-parameter logistic model was applied for the fitting.

A short description of assay [2]: On-bead menaquinone complexation assay (fluorescence of 2H). The following applies: single library bead (hit beads >1000 a.u.); average of three readings. Type of assay: binding. On the procedure:
Next, the feasibility of the on-bead complexation assay was assessed using bead-linked lysocin E 30 and MK-4 (2). Our initial assay based on the finding that 1 and 2 form a red precipitate upon complexation (Supplementary Fig. 2) was not robust, because the magnitude of the red color was not proportional to the amount of captured 2 (Fig. 2b, c). We therefore developed a fluorescence-based method for quantifying 2 by reducing its naphthoquinone moiety to fluorescent hydroquinone 2H. One bead of 30 was incubated with 2 in MeOH, washed by MeOH in a microplate well, and then the bead-bound 2 was eluted under more forcing hydrophobic conditions (n-BuOH at 50 °C). The eluate containing 2 was treated with NaBH4 in n-BuOH to produce 2H[46]. The fluorescence intensity of 2H was evaluated to determine the quantity of 2 bound to one bead of 30. The method was found with a small margin of error (1026 ± 64 a.u.), indicating its high accuracy (Fig. 2a and Supplementary Fig. 3). Importantly, the structure of 1 remained intact during the complexation assay as judged by UHPLC and mass analyses.
General procedures for menaquinone complexation assay. To the bead-linked lysocin E analogues in LibraTube was added a solution of menaquinone-4 (2) in MeOH (10 mM, 1.0 mL/1000 beads). The mixture was incubated at room temperature for 12 h. A suspension of the beads in MeOH (200 beads/200 µL) was transferred to a 2.0 mL microtube.
Each bead in the microtube was transferred to each well of a 96-well filtration plate (278011, Thermo Fisher Scientific, 1 bead/well) with the solution of 2 (20 µL/bead) using a micropipette. To each well was added MeOH (400 µL), and the beads was filtered by gravity flow (× 3). The beads in the plate were dried under vacuum for 0.5–1 h. The dried beads were transferred to a 96-well PCR plate (652270, Greiner bio-one, 1 bead/well) with MeOH (20 µL/well) using a micropipette. The solution was removed under a stream of Ar at 40 °C to give the 2-bound bead-linked peptides.
To the 2-bound bead-linked peptides in the plate was added n-BuOH (30 µL/well) at room temperature .
The suspension was incubated at 50 °C for 1 h. The resultant mixture in the plate was centrifuged at 3500 × g at room temperature for 10 sec . The supernatant in each well was transferred to the corresponding well of a black polystyrene flat -bottom 96-well plate (655086, Greiner bio-one). The solution was concentrated under a stream of Ar at 40 °C to give the eluted 2.
To the above eluted 2 in the plate was added n-BuOH (25 µL/well) at room temperature. The plate was vortexed at room temperature for 10 min. To the resultant solution was added a solution of NaBH4 in n-BuOH (1.0 mM, 25 µL/well). The plate was vortexed at room temperature for 10 min. The fluorescence of menahydroquinone (2H, Ex. 250 nm/Em. 430 nm) of each well was measured at room temperature every 3 min (0, 3, and 6 min) on Gemini EM microplate reader (Molecular Devices) . The three fluorescence intensities of each bead were averaged and plotted against the bead number.
Evaluation of menaquinone complexation activities of the selected bead-linked peptides. Bead-linked peptides 30, BLP1, and BLP2 were synthesized according to the above described procedures (loading rate:
0.222 mmol/g). The bead-linked peptides were subjected to the MK complexation assay described above.
The obtained fluorescent intensities of 2H (arbitrary unit) were 1026 ± 64 for 30, 396 ± 27 for BLP1, 72.9 ± 2.0 for BLP2, and 41.6 ± 0.1 for background adsorption (no bead), respectively (Supplementary Figure 3).

Setting [3] is: 30 min, room temperature, mean ± SD of three independent experiments, read-out: EC50 PC/PG.
Where [4] appears, read: PC/PG LUVs, 1st experiment, read-out: EC50 PC/PG 1st.
Setting [5] is: PC/PG LUVs, 2nd experiment, read-out: EC50 PC/PG 2nd.
Where [6] appears, read: PC/PG LUVs, 3rd experiment, read-out: EC50 PC/PG 3rd.

Turning to `CC[C@H](C)[C@@H]1NC(=O)[C@@H](Cc2c[nH]c3ccccc23)NC(=O)[C@@H](CCCN)NC(=O)[C@H](CCC(=O)O)NC(=O)[C@@H](CCCNC(=N)N)NC(=O)[C@H](CC(C)C)NC(=O)[C@@H](Cc2ccccc2)N(C)C(=O)CNC(=O)[C@H](CC(=O)O)NC(=O)[C@@H](CCCNC(=N)N)NC(=O)[C@@H](NC(=O)C[C@H](O)CC(C)C)[C@@H](C)OC(=O)[C@H]([C@@H](C)O)NC1=O` [Peptide A16] ({Hexanoyl(3R-OH,5-Me)}-T[dR]DG[dNMeF]L[dR]E[dOrn][dW]IT; ester 1-C), the EC50 in assay [1] (setting [3]), in assay [1] (setting [4]), in assay [1] (setting [5]) and in assay [1] (setting [6]) was above 1500 nM in each case. In addition, the “fluorescence intensity of 2H” value in assay [2] is on record as 1414.45 a.u.

Turning to `CC[C@H](C)[C@@H]1NC(=O)[C@@H](Cc2c[nH]c3ccccc23)NC(=O)[C@@H](Cc2ccc(O)cc2)NC(=O)[C@H](CCC(=O)O)NC(=O)[C@@H](CCCNC(=N)N)NC(=O)[C@H](CC(C)C)NC(=O)[C@@H](Cc2ccccc2)N(C)C(=O)CNC(=O)[C@H](CC(=O)O)NC(=O)[C@@H](CCCNC(=N)N)NC(=O)[C@@H](NC(=O)C[C@H](O)CC(C)C)[C@@H](C)OC(=O)[C@H]([C@@H](C)O)NC1=O` [Peptide A17] ({Hexanoyl(3R-OH,5-Me)}-T[dR]DG[dNMeF]L[dR]E[dY][dW]IT; ester 1-C), the EC50 in assay [1] (setting [3]), in assay [1] (setting [4]), in assay [1] (setting [5]) and in assay [1] (setting [6]) was above 1500 nM each time. The “fluorescence intensity of 2H” value in assay [2] worked out at 1396.02 a.u.
